The values that follow come from ChEMBL document CHEMBL3400131, “Discovery of potent and selective urea-based ROCK inhibitors: Exploring the inhibitor's potency and ROCK2/PKA selectivity by 3D-QSAR, molecular docking and molecular dynamics simulations” (Bioorg Med Chem, 2015).

pIC50: −log10 of the molar value.

System in the first assay: not listed separately
In words: Inhibition of recombinant human full length PKA using kemptide substrate after 80 mins by luminescence mode.
For `CN(C)CCC(NC(=O)Nc1ccc(-c2cn[nH]c2)cc1)c1ccccc1` (stereo unspecified), the pIC50 is 6.62.

As for `COc1cccc(CN(C)C(=O)Nc2ccc(-c3cn[nH]c3)cc2OCCN2CCCC2)c1`, the pIC50 is below 4.70.

Turning to `COc1cccc(CNC(=O)Nc2ccc(-c3cn[nH]c3)cc2)c1OC`, the pIC50 is below 4.70.

Take `COc1cccc(CNC(=O)Nc2ccc(-c3c[nH]nc3C)cc2)c1`: the pIC50 was 6.09.

Regarding `O=C(NCc1cccc(F)c1)Nc1ccc(-c2cn[nH]c2)cc1`, the pIC50 is 6.49.

As for `COc1ccc(CNC(=O)Nc2ccc(-c3cn[nH]c3)cc2)cc1OC`, the pIC50 is below 4.70.

On to `COc1cccc(CN(CCN2CCCC2)C(=O)Nc2ccc(-c3cn[nH]c3)cc2)c1`, for which the pIC50 is 6.27.

`O=C(Nc1ccc(-c2cn[nH]c2)cc1)NC(CCO)c1ccccc1` (stereo unspecified): the pIC50 is 6.36.

In the case of `O=C(Nc1ccc(-c2cn[nH]c2)cc1F)N(CCO)Cc1ccccc1`, the pIC50 was 5.99.

For the compound `CN(C)CCSc1cc(-c2cn[nH]c2)ccc1NC(=O)NCc1ccccc1`, the pIC50 was 6.33.

For `COc1ccccc1CNC(=O)Nc1ccc(-c2cn[nH]c2)cc1`, the pIC50 is 6.18.

For the compound `COc1cccc(CN(C(=O)Nc2ccc(-c3cn[nH]c3)cc2)C2CC2)c1`, the pIC50 is 5.77.

With `COc1ccc(CNC(=O)Nc2ccc(-c3cn[nH]c3)cc2)cc1F`, the pIC50 is 6.29.

As to `COc1cccc(CNC(=O)Nc2ccc(-c3ncnc4[nH]ccc34)cc2)c1`, the pIC50 was 6.13.

For the compound `COc1cccc(CN(CCCN2CCOCC2)C(=O)Nc2ccc(-c3cn[nH]c3)cc2)c1`, the pIC50 was 6.14.

As to `O=C(NCc1cccc(Cl)c1)Nc1ccc(-c2cn[nH]c2)cc1`, the pIC50 was 6.34.

`COc1cccc(C(CCO)NC(=O)Nc2ccc(-c3cn[nH]c3)cc2)c1` (stereo unspecified): the pIC50 was 5.31.

With `COc1cccc(CNC(=O)Nc2ccc(-c3cn[nH]c3)cc2OCCN(C)C)c1`, the negative logarithm of the IC50 (pIC50) is 5.41.

As for `COc1cccc(CNC(=O)Nc2ccc(-c3ccnc(N)c3)cc2)c1`, the pIC50 is 5.29.

As to `COc1cccc(CN(CCN)C(=O)Nc2ccc(-c3cn[nH]c3)cc2)c1`, the negative-log IC50 (pIC50) is 7.14.

Turning to `COc1cccc(CN(CCN2CCOCC2)C(=O)Nc2ccc(-c3cn[nH]c3)cc2)c1`, the pIC50 was 5.42.

For `COc1cccc(CN(C)C(=O)Nc2ccc(-c3cn[nH]c3)cc2)c1`, the pIC50 is 5.74.

Turning to `COc1cccc(CN(CCO)C(=O)Nc2ccc(-c3cn[nH]c3)cc2)c1`, the pIC50 was 5.52.

As to `COc1cccc(CNC(=O)Nc2ccc(-c3ccnc(N)n3)cc2)c1`, the pIC50 was 5.99.

In the case of `COc1cccc(OC)c1CNC(=O)Nc1ccc(-c2cn[nH]c2)cc1`, the pIC50 is 4.87.

Take `COc1cccc(CNC(=O)Nc2ccc(-c3cn[nH]c3)cc2N(C)C)c1`: the pIC50 was 7.42.

For the compound `COc1cccc(CNC(=O)Nc2ccc(-c3cn[nH]c3)cc2F)c1`, the pIC50 is 5.74.

With `O=C(Nc1ccc(-c2cn[nH]c2)cc1OCCO)N(CCO)Cc1ccccc1`, the pIC50 is 6.21.

Take `O=C(Nc1ccc(-c2cn[nH]c2)cc1)N1CCc2ccccc2C1`: the pIC50 is 5.10.

Turning to `COc1cccc(CNC(=O)Nc2ccc(-c3cn[nH]c3)cc2OCCN2CCCC2)c1`, the pIC50 is 5.56.

In the case of `CNC(=O)N(C)c1ccc(-c2cn[nH]c2)cc1`, the negative-log IC50 (pIC50) was below 4.70.

On to `COc1cccc(CNC(=O)Nc2ccc(-c3cn[nH]c3)cc2)c1`, for which the negative logarithm of the IC50 (pIC50) was 6.05.

As to `CCN(Cc1cccc(OC)c1)C(=O)Nc1ccc(-c2cn[nH]c2)cc1OCCN(C)C`, the pIC50 is below 4.70.

Regarding `CC(C)N(Cc1ccccc1)C(=O)Nc1ccc(-c2cn[nH]c2)cc1`, the pIC50 is 5.47.

`O=C(NCC1CCCCC1)Nc1ccc(-c2cn[nH]c2)cc1`: the pIC50 was below 4.70.

Consider `O=C(NCCc1ccccc1)Nc1ccc(-c2cn[nH]c2)cc1`, for which the pIC50 is 5.51.

Take `COc1ccc(OC)c(CNC(=O)Nc2ccc(-c3cn[nH]c3)cc2)c1`: the negative-log IC50 (pIC50) is below 4.70.

`COc1cccc(CN(C)C(=O)Nc2ccc(-c3cn[nH]c3)cc2OCCN(C)C)c1`: the pIC50 is 5.28.

Turning to `COc1cccc(CN(C(=O)Nc2ccc(-c3cn[nH]c3)cc2)C(C)C)c1`, the pIC50 was 4.73.

As to `CCN(Cc1cccc(OC)c1)C(=O)Nc1ccc(-c2cn[nH]c2)cc1N(C)CCN(C)C`, the pIC50 was 5.30.

With `COCCN(Cc1cccc(OC)c1)C(=O)Nc1ccc(-c2cn[nH]c2)cc1`, the pIC50 is 4.98.

Regarding `COc1cc(CNC(=O)Nc2ccc(-c3cn[nH]c3)cc2)cc(OC)c1`, the pIC50 is below 4.70.

As for `COc1cccc(CNC(=O)Nc2ccc(-c3cn[nH]c3)cc2Cl)c1`, the pIC50 was 6.50.

On to `CNC(=O)N(CCCN(C)C)c1ccc(-c2cn[nH]c2)cc1`, for which the pIC50 was 4.92.

Turning to `Cc1cccc(CNC(=O)Nc2ccc(-c3cn[nH]c3)cc2)c1`, the pIC50 is 5.58.

Regarding `O=C(NCCCc1ccccc1)Nc1ccc(-c2cn[nH]c2)cc1`, the pIC50 is below 4.70.

Turning to `O=C(Nc1ccc(-c2cn[nH]c2)cc1)N(CCO)Cc1ccccc1`, the pIC50 was 6.21.

In the case of `COc1cccc(CN(CCN2CCCCC2)C(=O)Nc2ccc(-c3cn[nH]c3)cc2)c1`, the negative-log IC50 (pIC50) was 6.47.

With `O=C(NCc1ccccc1)Nc1ccc(-c2cn[nH]c2)cc1`, the pIC50 is 6.23.

On to `CCN(Cc1cccc(OC)c1)C(=O)Nc1ccc(-c2cn[nH]c2)cc1O[C@H]1CCN(C)C1`, for which the pIC50 is 5.17.

Regarding `CCN(Cc1cccc(OC)c1)C(=O)Nc1ccc(-c2cn[nH]c2)cc1`, the pIC50 is 5.33.

With `COc1cccc(CN(CCN(C)C)C(=O)Nc2ccc(-c3cn[nH]c3)cc2)c1`, the pIC50 was 6.34.

As for `O=C(Nc1ccc(-c2cn[nH]c2)cc1)NC(CO)c1ccccc1` (stereo unspecified), the negative-log IC50 (pIC50) is 6.41.

Regarding `COc1cccc(CN(C)C(=O)Nc2ccc(-c3cn[nH]c3)cc2N(C)CCN(C)C)c1`, the pIC50 was 5.34.

As for `COc1cccc(CNC(=O)Nc2ccc(-c3ccncc3)cc2)c1`, the pIC50 was 5.64.

As to `CN(C)CCN(C)c1cc(-c2cn[nH]c2)ccc1NC(=O)NCc1ccccc1`, the negative logarithm of the IC50 (pIC50) is 6.05.

Take `COc1cccc(CN(CCCN2CCCCC2)C(=O)Nc2ccc(-c3cn[nH]c3)cc2)c1`: the pIC50 is 6.09.

`COc1cccc(CN(CCCN2CCCC2)C(=O)Nc2ccc(-c3cn[nH]c3)cc2)c1`: the pIC50 was 6.64.

For the compound `Nc1cccc(CNC(=O)Nc2ccc(-c3cn[nH]c3)cc2)c1`, the pIC50 was 6.39.

As for `COc1cccc(CNC(=O)Nc2ccc(-c3cn[nH]c3)cc2OC)c1`, the negative logarithm of the IC50 (pIC50) was 6.79.

`CNC(=O)N(CCN(C)C)c1ccc(-c2cn[nH]c2)cc1`: the negative-log IC50 (pIC50) was 5.38.

Regarding `O=C(Nc1ccc(-c2cn[nH]c2)cc1)NC(CCO)c1cccc(F)c1` (stereo unspecified), the pIC50 was 6.24.

Regarding `COc1ccc(CNC(=O)Nc2ccc(-c3cn[nH]c3)cc2)c(OC)c1`, the pIC50 is 4.95.

`CCN(Cc1cccc(OC)c1)C(=O)Nc1ccc(-c2cn[nH]c2)cc1OCCN1CCCC1`: the pIC50 is 4.74.

Turning to `COc1cccc(CNC(=O)Nc2ccc(-c3cn[nH]c3)cc2N(C)CCN(C)C)c1`, the negative-log IC50 (pIC50) is 5.45.

`CNC(=O)N(CCO)c1ccc(-c2cn[nH]c2)cc1`: the pIC50 is below 4.70.

For another assay, the target named is Rho-associated protein kinase 2 (Homo sapiens, UniProt O75116). Put plainly: Inhibition of ROCK2 (unknown origin) using STK2 substrate after 4 hrs by HTRF mode.
Chain of Rho-associated protein kinase 2 (O75116 whole entry): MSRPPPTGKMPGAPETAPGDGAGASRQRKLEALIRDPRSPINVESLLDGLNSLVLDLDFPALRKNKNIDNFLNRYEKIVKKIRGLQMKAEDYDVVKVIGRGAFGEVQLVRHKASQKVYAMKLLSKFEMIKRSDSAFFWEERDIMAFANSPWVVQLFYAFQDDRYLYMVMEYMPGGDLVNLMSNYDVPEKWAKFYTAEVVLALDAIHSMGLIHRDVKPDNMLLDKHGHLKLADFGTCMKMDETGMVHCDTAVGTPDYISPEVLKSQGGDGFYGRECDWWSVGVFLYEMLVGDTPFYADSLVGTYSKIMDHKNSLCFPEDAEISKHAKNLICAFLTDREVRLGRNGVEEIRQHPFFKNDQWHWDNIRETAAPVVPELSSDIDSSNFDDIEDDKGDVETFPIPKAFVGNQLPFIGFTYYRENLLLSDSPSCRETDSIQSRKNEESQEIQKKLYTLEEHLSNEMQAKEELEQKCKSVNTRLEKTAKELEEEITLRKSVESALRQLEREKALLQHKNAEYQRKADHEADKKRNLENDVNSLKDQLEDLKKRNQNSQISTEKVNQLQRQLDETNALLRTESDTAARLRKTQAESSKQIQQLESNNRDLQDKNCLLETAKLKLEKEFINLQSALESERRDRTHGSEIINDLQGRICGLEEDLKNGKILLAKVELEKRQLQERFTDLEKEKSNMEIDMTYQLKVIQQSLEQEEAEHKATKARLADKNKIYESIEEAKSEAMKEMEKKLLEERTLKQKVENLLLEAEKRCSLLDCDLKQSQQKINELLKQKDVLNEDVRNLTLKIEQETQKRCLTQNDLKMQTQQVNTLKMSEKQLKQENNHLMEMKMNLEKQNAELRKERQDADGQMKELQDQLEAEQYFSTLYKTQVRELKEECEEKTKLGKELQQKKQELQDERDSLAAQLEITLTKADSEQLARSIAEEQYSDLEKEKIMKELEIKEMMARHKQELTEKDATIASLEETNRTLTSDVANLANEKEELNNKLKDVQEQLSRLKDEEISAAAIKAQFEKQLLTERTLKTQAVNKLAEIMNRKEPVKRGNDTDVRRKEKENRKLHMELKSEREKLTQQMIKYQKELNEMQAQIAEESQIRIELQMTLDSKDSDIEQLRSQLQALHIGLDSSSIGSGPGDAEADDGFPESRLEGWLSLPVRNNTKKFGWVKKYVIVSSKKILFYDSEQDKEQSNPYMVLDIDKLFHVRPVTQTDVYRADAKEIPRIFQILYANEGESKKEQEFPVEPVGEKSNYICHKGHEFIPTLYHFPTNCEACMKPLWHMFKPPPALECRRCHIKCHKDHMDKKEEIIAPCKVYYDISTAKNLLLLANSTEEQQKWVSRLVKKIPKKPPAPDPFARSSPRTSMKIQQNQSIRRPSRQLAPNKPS
On to `CN(C)CCSc1cc(-c2cn[nH]c2)ccc1NC(=O)NCc1ccccc1`, for which the pIC50 is 8.25.

On to `COc1cccc(CNC(=O)Nc2ccc(-c3ncnc4[nH]ccc34)cc2)c1`, for which the pIC50 was 6.73.

The compound `O=C(Nc1ccc(-c2cn[nH]c2)cc1OCCO)N(CCO)Cc1ccccc1` gave a pIC50 above 9.00.

The compound `CNC(=O)N(C)c1ccc(-c2cn[nH]c2)cc1` showed a pIC50 of 7.06.

Turning to `CC(C)N(Cc1ccccc1)C(=O)Nc1ccc(-c2cn[nH]c2)cc1`, the pIC50 was 8.10.

The compound `CNC(=O)N(CCCN(C)C)c1ccc(-c2cn[nH]c2)cc1` gave a pIC50 of 5.48.

The compound `CN(C)CCOc1cc(-c2cn[nH]c2)ccc1NC(=O)N(CCN(C)C)Cc1ccccc1` had a pIC50 of 6.77.

`CN(C)CCN(C)c1cc(-c2cn[nH]c2)ccc1NC(=O)NCc1ccccc1` showed a pIC50 of 8.07.

`CNC(=O)N(CCN(C)C)c1ccc(-c2cn[nH]c2)cc1`: the negative logarithm of the IC50 (pIC50) is 5.53.

`CNC(=O)N(CCO)c1ccc(-c2cn[nH]c2)cc1` had a pIC50 of 6.21.
